# Results as given in US12552783B2, “Modulators of proteolysis and associated methods of use” (Arvinas Operations, Inc., priority 2018, dated 2026).
# Assays:
# Format in all cases: cell-based
# [1] = molecular target: T1, KRas (Homo sapiens, UniProt P01116, G12C); test: KRas degradation in H2030 cells by Western blot (data of Table 5); set-up: host or cells: NCI-H2030; details: H2030 cells serum starved 24 hours, KRas immunoblot; for H2030 Degradation at 0.3 uM: treated 24 hours with 0.3 uM; for H2030 Degradation at 1 uM: treated 24 hours with 1 uM; for H2030 Degradation at 3 uM: treated 24 hours with 3 uM
# Description: Cell Lines, Antibodies, and Reagents. NCI-H2030 (CRL-5914) and SW1573 (CRL-2170) cells were purchased from ATCC. Both cell lines are homozygous for the G12C mutation in KRas. NCI-H2030 cells were cultured in RPMI-1640 medium containing 1% penicillin-streptomycin and 10% fetal bovine serum (FBS). SW1573 cells were cultured in DMEM containing 1% penicillin-streptomycin and 10% FBS. The KRas detection antibody (Cat. No. LS-C175665) was purchased from LifeSpan Biosciences and was used at a dilution of 1:2000. GAPDH was detected using an antibody purchased from Cell Signaling Technology (Cat. No. 5174) and was diluted 1:3000. Secondary anti-mouse and anti-rabbit detection antibodies were purchased from Cell Signaling Technology (Cat. Nos. 7076 and 7074, respectively).
# Compound Treatment and Western Blotting of the Data of Table 5. H2030 cells in 12-well plates were serum starved for 24 hours, and then treated with 0.3 uM, 1 uM, and 3 uM of the indicated bifunctional compound, for 24 hours. Cells were lysed in a Cell Signaling Technology Cell Lysis Buffer (Cat. No. #9803) supplemented with protease inhibitors, and proteins were separated by SDS-PAGE. KRas was detected by immunoblotting using the LSBio antibody (Cat. No. LS-C175665).
# DC50 is the half-maximal degradation concentration—i.e., the concentration at which 50% degradation is observed. DMax is the maximum degradation efficacy is achieved—i.e., the maximal degradation observed) degradation data.
# [2] = molecular target: T1, KRas; test: KRas degradation in SW1573 cells by Western blot, normalized to GAPDH (data of Table 14)
# In short: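 SW1573 cells, homozygous for the KRas G12C mutation and maintained in DMEM with 10% FBS and 1% penicillin-streptomycin, were seeded in 12-well plates, allowed to attach overnight at 37° C. under 5% CO2, then serum-starved for 24 hours before compound exposure. KRas levels were measured by Western blot, normalized to GAPDH, and compared with DMSO controls to give percent degradation, DC50 and Dmax.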
# [3] = molecular target: T1, KRas; test: KRas degradation in NCI-H2030 cells by Western blot, normalized to GAPDH (data of Table 14); set-up: host or cells: NCI-H2030; details: for Dmax: NCI-H2030
# In short: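 Readout: GAPDH-normalized KRas immunoblot signal, expressed as percent degradation versus 0.1% DMSO vehicle. Treatment: 0.3, 1, 3 μM after 24 h starvation; 24 h (VHL-based) or 72 h (others).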
compound,measurement,setting,value
"C=CC(=O)N1CCN(c2nc(NCCC(=O)N(C)CCOCCOCCOCCOCC(=O)N[C@H](C(=O)N3C[C@H](O)C[C@H]3C(=O)N[C@@H](C)c3ccc(-c4scnc4C)cc3)C(C)(C)C)nc3c(F)c(-c4cc(O)cc5ccccc45)c(Cl)cc23)CC1 [compound 1, (2S,4R)-1-((2S)-21-((4-(4-acryloylpiperazin-1-yl)-6-chloro-8-fluoro-7-(3-hydroxynaphthalen-1-yl)quinazolin-2-yl)amino)-2-(tert-butyl)-18-methyl-4,19-dioxo-6,9,12,15-tetraoxa-3,18-diazahenicosanoyl)-4-hydroxy-N-((S)-1-(4-(4-methylthiazol-5-yl)phenyl)ethyl) pyrrolidine-2-carboxamide]",H2030 Degradation at 0.3 uM,[1],C (C < 25)
same,H2030 Degradation at 1 uM,[1],A (A ≥ 50)
same,H2030 Degradation at 3 uM,[1],A (A ≥ 50)
"C=CC(=O)N1CCN(c2nc(NCCC(=O)N(C)CCOCCOCCOCCOCCOCC(=O)N[C@H](C(=O)N3C[C@H](O)C[C@H]3C(=O)N[C@@H](C)c3ccc(-c4scnc4C)cc3)C(C)(C)C)nc3c(F)c(-c4cc(O)cc5ccccc45)c(Cl)cc23)CC1 [compound 2, (2S,4R)-1-((2S)-24-((4-(4-acryloylpiperazin-1-yl)-6-chloro-8-fluoro-7-(3-hydroxynaphthalen-1-yl)quinazolin-2-yl)amino)-2-(tert-butyl)-21-methyl-4,22-dioxo-6,9,12,15,18-pentaoxa-3,21-diazatetracosanoyl)-4-hydroxy-N-((S)-1-(4-(4-methylthiazol-5-yl)phenyl)ethyl) pyrrolidine-2-carboxamide]",H2030 Degradation at 0.3 uM,[1],C (C < 25)
same,H2030 Degradation at 1 uM,[1],A (A ≥ 50)
same,H2030 Degradation at 3 uM,[1],A (A ≥ 50)
"C=CC(=O)N1CCN(c2nc(NCCC(=O)N(C)CCOCCOCCOCCNc3cccc4c3C(=O)N(C3CCC(=O)NC3=O)C4=O)nc3c(F)c(-c4cc(O)cc5ccccc45)c(Cl)cc23)CC1 (stereo not drawn) [compound 3, 3-((4-(4-acryloylpiperazin-1-yl)-6-chloro-8-fluoro-7-(3-hydroxynaphthalen-1-yl)quinazolin-2-yl)amino)-N-(2-(2-(2-(2-((2-(2,6-dioxopiperidin-3-yl)-1,3-dioxoisoindolin-4-yl)amino)ethoxy)ethoxy)ethoxy)ethyl)-N-methylpropanamide]",H2030 Degradation at 0.3 uM,[1],C (C < 25)
same,H2030 Degradation at 1 uM,[1],B (25 ≤ B < 50)
same,H2030 Degradation at 3 uM,[1],B (25 ≤ B < 50)
"C=CC(=O)N1CCN(c2nc(NCCC(=O)N(C)CCOCCOCCOCC(=O)N[C@H](C(=O)N3C[C@H](O)C[C@H]3C(=O)N[C@@H](C)c3ccc(-c4scnc4C)cc3)C(C)(C)C)nc3c(F)c(-c4cc(O)cc5ccccc45)c(Cl)cc23)CC1 [compound 4, (2S,4R)-1-((2S)-18-((4-(4-acryloylpiperazin-1-yl)-6-chloro-8-fluoro-7-(3-hydroxynaphthalen-1-yl)quinazolin-2-yl)amino)-2-(tert-butyl)-15-methyl-4,16-dioxo-6,9,12-trioxa-3,15-diazaoctadecanoyl)-4-hydroxy-N-((S)-1-(4-(4-methylthiazol-5-yl)phenyl)ethyl) pyrrolidine-2-carboxamide]",H2030 Degradation at 0.3 uM,[1],C (C < 25)
same,H2030 Degradation at 1 uM,[1],B (25 ≤ B < 50)
same,H2030 Degradation at 3 uM,[1],B (25 ≤ B < 50)
"C=CC(=O)N1CCN(c2nc(NCCC(=O)N(C)CCOCCOCCOCCOCCOc3ccc4c(c3)CN(C3CCC(=O)NC3=O)C4=O)nc3c(F)c(-c4cc(O)cc5ccccc45)c(Cl)cc23)CC1 (stereo not drawn) [compound 5, 3-((4-(4-acryloylpiperazin-1-yl)-6-chloro-8-fluoro-7-(3-hydroxynaphthalen-1-yl)quinazolin-2-yl)amino)-N-(14-((2-(2,6-dioxopiperidin-3-yl)-1-oxoisoindolin-5-yl)oxy)-3,6,9,12-tetraoxatetradecyl)-N-methylpropanamide]",H2030 Degradation at 0.3 uM,[1],C (C < 25)
same,H2030 Degradation at 1 uM,[1],B (25 ≤ B < 50)
same,H2030 Degradation at 3 uM,[1],B (25 ≤ B < 50)
"C=CC(=O)N1CCN(c2nc(O[C@H](C)CN3CCC(OCCOCCOCCOCCOCCOCC(=O)N[C@H](C(=O)N4C[C@H](O)C[C@H]4C(=O)N[C@@H](C)c4ccc(-c5scnc5C)cc4)C(C)(C)C)CC3)nc3c(F)c(-c4cc(O)cc5ccccc45)c(Cl)cc23)CC1 [compound 402, (2S,4R)-1-((2S)-20-((1-((2R)-2-((4-(4-acryloylpiperazin-1-yl)-6-chloro-8-fluoro-7-(3-hydroxynaphthalen-1-yl)quinazolin-2-yl)oxy)propyl)piperidin-4-yl)oxy)-2-(tert-butyl)-4-oxo-6,9,12,15,18-pentaoxa-3-azaicosanoyl)-4-hydroxy-N-((S)-1-(4-(4-methylthiazol-5-yl)phenyl)ethyl)pyrrolidine-2-carboxamide]",DC50,[2]; SW1573 cells,≥ 1000 nM
same,Dmax,[2]; SW1573 cells,≤ 35%
same,Percent Degradation at Indicated Concentration (μM),"[2]; SW1573 cells, 0.01 μM",C (Percent Degradation: C ≤ 35)
same,Percent Degradation at Indicated Concentration (μM),"[2]; SW1573 cells, 0.03 μM",C (Percent Degradation: C ≤ 35)
same,Percent Degradation at Indicated Concentration (μM),"[2]; SW1573 cells, 0.1 μM",C (Percent Degradation: C ≤ 35)
same,Percent Degradation at Indicated Concentration (μM),"[2]; SW1573 cells, 0.3 μM",C (Percent Degradation: C ≤ 35)
same,Percent Degradation at Indicated Concentration (μM),"[2]; SW1573 cells, 1 μM",C (Percent Degradation: C ≤ 35)
same,Percent Degradation at Indicated Concentration (μM),"[3]; H2030 cells, 0.3 μM",C (Percent Degradation: C ≤ 35)
same,Percent Degradation at Indicated Concentration (μM),"[3]; H2030 cells, 1 μM",C (Percent Degradation: C ≤ 35)
same,Percent Degradation at Indicated Concentration (μM),"[3]; H2030 cells, 3 μM",C (Percent Degradation: C ≤ 35)
same,Dmax,[3]; H2030 cells,≤ 35%
"C=CC(=O)N1CCN(c2nc(OCCN(C)CCOCCOCCOCCOCC(=O)N[C@H](C(=O)N3C[C@H](O)C[C@H]3C(=O)N[C@@H](C)c3ccc(-c4scnc4C)cc3)C(C)(C)C)nc3c(F)c(-c4cc(O)cc5ccccc45)c(Cl)cc23)CC1 [compound 473, (2S,4R)-1-((2S)-20-((4-(4-acryloylpiperazin-1-yl)-6-chloro-8-fluoro-7-(3-hydroxynaphthalen-1-yl)quinazolin-2-yl)oxy)-2-(tert-butyl)-18-methyl-4-oxo-6,9,12,15-tetraoxa-3,18-diazaicosanoyl)-4-hydroxy-N-((S)-1-(4-(4-methylthiazol-5-yl)phenyl)ethyl)pyrrolidine-2-carboxamide]",DC50,[2]; SW1573,100 to 1000 nM
same,Dmax,[2]; SW1573,35 to 70%
same,Percent Degradation at Indicated Concentration (μM),"[2]; SW1573, 0.03 μM",C (Percent Degradation: C ≤ 35)
same,Percent Degradation at Indicated Concentration (μM),"[2]; SW1573, 0.1 μM",C (Percent Degradation: C ≤ 35)
same,Percent Degradation at Indicated Concentration (μM),"[2]; SW1573, 0.3 μM",B (35 < B < 70)
same,Percent Degradation at Indicated Concentration (μM),"[2]; SW1573, 1 μM",B (35 < B < 70)
same,Percent Degradation at Indicated Concentration (μM),"[2]; SW1573, 3 μM",B (35 < B < 70)
same,Percent Degradation at Indicated Concentration (μM),"[2]; SW1573, 10 μM",B (35 < B < 70)
same,DC50,[3]; H2030,100 to 1000 nM
same,Percent Degradation at Indicated Concentration (μM),"[3]; H2030, 0.03 μM",C (Percent Degradation: C ≤ 35)
same,Percent Degradation at Indicated Concentration (μM),"[3]; H2030, 0.1 μM",C (Percent Degradation: C ≤ 35)
same,Percent Degradation at Indicated Concentration (μM),"[3]; H2030, 0.3 μM",C (Percent Degradation: C ≤ 35)
same,Percent Degradation at Indicated Concentration (μM),"[3]; H2030, 1 μM",C (Percent Degradation: C ≤ 35)
same,Percent Degradation at Indicated Concentration (μM),"[3]; H2030, 3 μM",C (Percent Degradation: C ≤ 35)
same,Percent Degradation at Indicated Concentration (μM),"[3]; H2030, 10 μM",C (Percent Degradation: C ≤ 35)
same,Dmax,[3],≤ 35%
